From patent publication US10676433B2, “Indole derivatives and their use in neurodegenerative diseases” (Merck Patent GmbH, priority 2014, dated 2020)

Biological target: human P2X7 receptor (Homo sapiens (Human), UniProt Q99572)
Assay: Pore permeation assay (YO PRO dye uptake)
Type: cell-based
Conditions: HEK293 transfected with human P2X7 receptor, BzATP 10 uM, read-out: hP2X7 IC50
Procedure: Agonist-induced pore formation was determined by measuring cellular uptake of YO PRO fluorescence dye in HEK293 transfected with human P2X7 receptor. A HEK293 cell over expressing human P2X7 was harvested using HQTase reagent to detach the cells from T75 cm flask. The harvested cells are centrifuged @ 1200 rpm for 5 min at room temperature. The viability of cells was determined by Trypan blue dye and the cells are plated @ 10,000 cell/well in 50 ul volume in a 384W BD Poly lysine coated plate and incubated overnight at 37 C. […] The plate was centrifuged at 1000 rpm for 5 seconds and incubated at room temperature for 30 minutes. The uptake of YO PRO dye into the cells was measured using Envision Fluorescence plate reader instrument (Perkin Elmer).

Sequence of human P2X7 receptor (Q99572 whole entry): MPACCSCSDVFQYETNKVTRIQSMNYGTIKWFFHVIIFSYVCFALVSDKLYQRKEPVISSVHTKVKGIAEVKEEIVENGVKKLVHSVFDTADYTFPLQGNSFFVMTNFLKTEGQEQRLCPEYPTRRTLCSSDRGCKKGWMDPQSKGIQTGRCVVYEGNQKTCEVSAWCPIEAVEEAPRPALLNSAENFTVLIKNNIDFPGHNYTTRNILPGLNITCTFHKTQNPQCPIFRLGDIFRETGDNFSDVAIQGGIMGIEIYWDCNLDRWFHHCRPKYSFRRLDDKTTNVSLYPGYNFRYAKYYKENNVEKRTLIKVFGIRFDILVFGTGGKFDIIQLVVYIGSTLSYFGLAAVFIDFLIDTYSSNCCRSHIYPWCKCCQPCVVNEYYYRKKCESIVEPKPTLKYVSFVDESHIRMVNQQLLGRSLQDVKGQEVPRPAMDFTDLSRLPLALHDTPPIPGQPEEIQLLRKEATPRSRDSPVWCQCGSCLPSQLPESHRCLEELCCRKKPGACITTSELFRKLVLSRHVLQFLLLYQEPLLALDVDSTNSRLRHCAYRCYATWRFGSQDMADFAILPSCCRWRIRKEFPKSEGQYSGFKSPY

Compound | IC50
4-Chloro-1-oxetan-3-yl-1H-indole-3-carboxylic acid (2,2-difluoro-ethyl)-amide [Compound 76] | > 1000 nM
CC(O)(CNC(=O)c1cn(C2CCOC2)c2cccc(Cl)c12)C1CCCC1 (centres unmarked) [Compound 102, 4-Chloro-1-(tetrahydro-furan-3-yl)-1H-indole-3-carboxylic acid (2-cyclopentyl-2-hydroxy-propyl)-amide] | > 1000 nM
